Data on one compound can be found in article PMC5218480 (PLoS ONE, 2017).

The subject of the test is MV-4-11 cells. Description: Gene expression microarray analysis (Affymetrix PrimeView) and GSEA. The settings on record: MV-4-11 cells, 48 hours. Also noted: RFU PODN (11730768_x_at) / Fold change /veh PODN (11730768_x_at) / RFU LINC00158 (11744669_a_at) / Fold change /veh LINC00158 (11744669_a_at) / RFU DUSP10 (11751237_a_at) / Fold change /veh DUSP10 (11751237_a_at) / RFU ID3 (11757404_x_at) / Fold change /veh ID3 (11757404_x_at) / RFU PLEKHG5 (11737974_s_at) / Fold change /veh PLEKHG5 (11737974_s_at) / RFU LRRC4B (11730491_at) / Fold change /veh LRRC4B (11730491_at) / RFU GIMAP4 (11747438_a_at) / Fold change /veh GIMAP4 (11747438_a_at) / RFU KRT8 (11758183_x_at) / Fold change /veh KRT8 (11758183_x_at) / RFU CNN1 (11734310_a_at) / Fold change /veh CNN1 (11734310_a_at) / RFU VPS37D (11726825_at) / Fold change /veh VPS37D (11726825_at) / RFU C10orf10 (11716522_x_at) / Fold change /veh C10orf10 (11716522_x_at) / RFU KIR2DL2 /// KIR2DL4 /// KIR2DL5A /// KIR2DL5B /// KIR2DS1 /// KIR2DS2 /// KIR2DS3 /// KIR2DS4 /// KIR3DL3 /// KIR3DL3 /// KIR3DS1 (11738374_at) / Fold change /veh KIR2DL2 /// KIR2DL4 /// KIR2DL5A /// KIR2DL5B /// KIR2DS1 /// KIR2DS2 /// KIR2DS3 /// KIR2DS4 /// KIR3DL3 /// KIR3DL3 /// KIR3DS1 (11738374_at) / RFU C1QL1 (11718748_at) / Fold change /veh C1QL1 (11718748_at) / RFU TMPRSS4 (11747572_a_at) / Fold change /veh TMPRSS4 (11747572_a_at) / RFU HAMP (11756126_x_at) / Fold change /veh HAMP (11756126_x_at) / RFU RNFT2 (11725882_a_at) / Fold change /veh RNFT2 (11725882_a_at) / RFU NR4A2 (11747474_a_at) / Fold change /veh NR4A2 (11747474_a_at) / RFU ABCC12 (11746883_a_at) / Fold change /veh ABCC12 (11746883_a_at) / RFU TMEM136 (11760407_x_at) / Fold change /veh TMEM136 (11760407_x_at) / RFU CLDN22 /// WWC2 (11732394_at) / Fold change /veh CLDN22 /// WWC2 (11732394_at) / RFU HLA-DPB1 (11760878_x_at) / Fold change /veh HLA-DPB1 (11760878_x_at) / RFU SPINT1 (11716480_a_at) / Fold change /veh SPINT1 (11716480_a_at) / RFU GAP43 (11754022_s_at) / Fold change /veh GAP43 (11754022_s_at) / RFU A4GNT (11735810_at) / Fold change /veh A4GNT (11735810_at) / RFU PRB3 (11715151_x_at) / Fold change /veh PRB3 (11715151_x_at) / RFU TUBB4B (11761932_at) / Fold change /veh TUBB4B (11761932_at) / RFU CAPN14 (11732068_a_at) / Fold change /veh CAPN14 (11732068_a_at) / RFU TMCC2 (11721928_a_at) / Fold change /veh TMCC2 (11721928_a_at) / RFU IRGQ (11745062_a_at) / Fold change /veh IRGQ (11745062_a_at) / RFU FAM174B (11720279_a_at) / Fold change /veh FAM174B (11720279_a_at) / RFU TMPRSS4 (11748680_a_at) / Fold change /veh TMPRSS4 (11748680_a_at) / RFU FAM212B (11763350_a_at) / Fold change /veh FAM212B (11763350_a_at) / RFU PLEKHG5 (11743358_a_at) / Fold change /veh PLEKHG5 (11743358_a_at) / RFU ZSCAN30 (11745921_a_at) / Fold change /veh ZSCAN30 (11745921_a_at) / RFU CMKLR1 (11741424_a_at) / Fold change /veh CMKLR1 (11741424_a_at) / RFU LOC101060620 /// MAPK8IP1 (11723275_at) / Fold change /veh LOC101060620 /// MAPK8IP1 (11723275_at) / RFU SPTSSB (11747773_x_at) / Fold change /veh SPTSSB (11747773_x_at) / RFU PRSS12 (11739890_at) / Fold change /veh PRSS12 (11739890_at) / RFU BIN1 (11741810_x_at) / Fold change /veh BIN1 (11741810_x_at) / RFU WNT11 (11732464_a_at) / Fold change /veh WNT11 (11732464_a_at) / RFU C10orf10 (11716521_a_at) / Fold change /veh C10orf10 (11716521_a_at) / RFU C5orf56 (11738089_at) / Fold change /veh C5orf56 (11738089_at) / RFU CYB561 (11721691_x_at) / Fold change /veh CYB561 (11721691_x_at) / RFU ANKRD19P (11752326_a_at) / Fold change /veh ANKRD19P (11752326_a_at) / RFU OR2T12 /// OR2T33 /// OR2T8 (11738714_s_at) / Fold change /veh OR2T12 /// OR2T33 /// OR2T8 (11738714_s_at) / RFU VCAN (11748164_a_at) / Fold change /veh VCAN (11748164_a_at) / RFU JSRP1 (11732532_at) / Fold change /veh JSRP1 (11732532_at) / RFU KRTAP10-11 (11738290_x_at) / Fold change /veh KRTAP10-11 (11738290_x_at) / RFU MYO3A (11730013_a_at) / Fold change /veh MYO3A (11730013_a_at) / RFU EBF3 (11725865_a_at) / Fold change /veh EBF3 (11725865_a_at) / RFU CAMK2N1 (11719241_x_at) / Fold change /veh CAMK2N1 (11719241_x_at) / RFU C5orf56 (11738088_a_at) / Fold change /veh C5orf56 (11738088_a_at) / RFU OLFML3 (11715873_a_at) / Fold change /veh OLFML3 (11715873_a_at) / RFU LOC100653217 /// NTM (11731650_a_at) / Fold change /veh LOC100653217 /// NTM (11731650_a_at) / RFU MAPK11 (11762145_a_at) / Fold change /veh MAPK11 (11762145_a_at) / RFU FIZ1 (11724087_x_at) / Fold change /veh FIZ1 (11724087_x_at) / RFU OASL (11726364_x_at) / Fold change /veh OASL (11726364_x_at) / RFU SOX15 (11748057_x_at) / Fold change /veh SOX15 (11748057_x_at) / RFU CD79A (11719716_a_at) / Fold change /veh CD79A (11719716_a_at) / RFU HIST1H1D (11736915_at) / Fold change /veh HIST1H1D (11736915_at) / RFU CASKIN2 (11723855_a_at) / Fold change /veh CASKIN2 (11723855_a_at) / RFU LOC730098 (11760151_x_at) / Fold change /veh LOC730098 (11760151_x_at) / RFU OR4N2 (11742367_at) / Fold change /veh OR4N2 (11742367_at) / RFU PRRT2 (11749266_a_at) / Fold change /veh PRRT2 (11749266_a_at) / RFU SNX32 (11753110_a_at) / Fold change /veh SNX32 (11753110_a_at) / RFU CDHR5 (11726645_a_at) / Fold change /veh CDHR5 (11726645_a_at) / RFU RCAN1 (11760418_a_at) / Fold change /veh RCAN1 (11760418_a_at) / RFU FAM167A (11723789_a_at) / Fold change /veh FAM167A (11723789_a_at) / RFU FAM26E (11764081_at) / Fold change /veh FAM26E (11764081_at) / RFU ISYNA1 (11749810_s_at) / Fold change /veh ISYNA1 (11749810_s_at) / RFU ACY1 (11761880_at) / Fold change /veh ACY1 (11761880_at) / RFU 11764098_at / Fold change /veh 11764098_at / RFU SAMD14 (11745864_x_at) / Fold change /veh SAMD14 (11745864_x_at) / RFU NPB (11741838_a_at) / Fold change /veh NPB (11741838_a_at) / RFU TMPRSS6 (11731388_a_at) / Fold change /veh TMPRSS6 (11731388_a_at) / RFU KRTAP10-2 (11738614_at) / Fold change /veh KRTAP10-2 (11738614_at) / RFU ARHGAP8 /// PRR5-ARHGAP8 (11727945_x_at) / Fold change /veh ARHGAP8 /// PRR5-ARHGAP8 (11727945_x_at) / RFU KRTAP5-7 /// NADSYN1 (11734609_at) / Fold change /veh KRTAP5-7 /// NADSYN1 (11734609_at) / RFU RASL12 (11751679_a_at) / Fold change /veh RASL12 (11751679_a_at) / RFU CDKN2B (11736163_a_at) / Fold change /veh CDKN2B (11736163_a_at) / RFU PRF1 (11729649_at) / Fold change /veh PRF1 (11729649_at) / RFU, ZNF638 /// ZNF638-IT1 / Fold change vs veh, ZNF638 /// ZNF638-IT1 / RFU, PANK3 / Fold change vs veh, PANK3 / RFU, SH3YL1 / Fold change vs veh, SH3YL1 / RFU, ZEB2 / Fold change vs veh, ZEB2 / RFU, NRIP1 / Fold change vs veh, NRIP1 / RFU, PTTG1IP / Fold change vs veh, PTTG1IP / RFU, CAPN2 / Fold change vs veh, CAPN2 / RFU, MED14 / Fold change vs veh, MED14 / RFU, SNORA58 / Fold change vs veh, SNORA58 / RFU, C1orf63 / Fold change vs veh, C1orf63 / RFU, LRRFIP1 / Fold change vs veh, LRRFIP1 / RFU, NDUFAF7 / Fold change vs veh, NDUFAF7 / RFU, SLC12A2 / Fold change vs veh, SLC12A2 / RFU, IBTK / Fold change vs veh, IBTK / RFU, ESF1 / Fold change vs veh, ESF1 / Fold change vs veh, TMEM50B / RFU, TAOK1 / Fold change vs veh, TAOK1 / RFU, ACBD3 / Fold change vs veh, ACBD3 / RFU, TMA16 / Fold change vs veh, TMA16 / RFU, RWDD3 / Fold change vs veh, RWDD3 / RFU, BCAT1 / Fold change vs veh, BCAT1 / RFU, EDEM3 / Fold change vs veh, EDEM3 / RFU, TMEM33 / Fold change vs veh, TMEM33 / RFU, WDR75 / Fold change vs veh, WDR75 / RFU, AHCTF1 / Fold change vs veh, AHCTF1 / RFU, TFRC / Fold change vs veh, TFRC / RFU, ZDHHC17 / Fold change vs veh, ZDHHC17 / RFU, NOM1 / Fold change vs veh, NOM1 / RFU, ARL8B / Fold change vs veh, ARL8B / RFU, ZBTB11 / Fold change vs veh, ZBTB11 / RFU, TAMM41 / Fold change vs veh, TAMM41 / RFU, KIAA1704 /// LOC100996395 / Fold change vs veh, KIAA1704 /// LOC100996395 / RFU, ING1 / Fold change vs veh, ING1 / RFU, TRMT61B / Fold change vs veh, TRMT61B / RFU, FUBP3 / Fold change vs veh, FUBP3 / RFU, TP53 / Fold change vs veh, TP53 / RFU, TNKS2 / Fold change vs veh, TNKS2 / RFU, ZFP14 / Fold change vs veh, ZFP14 / RFU, ACTR2 / Fold change vs veh, ACTR2 / RFU, PPP3R1 / Fold change vs veh, PPP3R1 / RFU, PIK3R1 / Fold change vs veh, PIK3R1 / RFU, HNRNPA1 / Fold change vs veh, HNRNPA1 / RFU, RNF170 / Fold change vs veh, RNF170 / RFU, ZNF28 / Fold change vs veh, ZNF28 / RFU, RNGTT / Fold change vs veh, RNGTT / RFU, OGT / Fold change vs veh, OGT / RFU, BRD1 / Fold change vs veh, BRD1 / RFU, MARS / Fold change vs veh, MARS / RFU, ZNF655 / Fold change vs veh, ZNF655 / RFU, FAHD1 / Fold change vs veh, FAHD1 / RFU, BDP1 / Fold change vs veh, BDP1 / RFU, LRRCC1 / Fold change vs veh, LRRCC1 / RFU, ARID1A / Fold change vs veh, ARID1A / RFU, ZNF146 / Fold change vs veh, ZNF146 / RFU, ZNF330 / Fold change vs veh, ZNF330 / RFU, GPN3 / Fold change vs veh, GPN3 / RFU, C9orf123 / Fold change vs veh, C9orf123 / RFU, N4BP2L2 / Fold change vs veh, N4BP2L2 / RFU, ARFIP1 / Fold change vs veh, ARFIP1 / RFU, FAM179B / Fold change vs veh, FAM179B / RFU, BCL10 / Fold change vs veh, BCL10 / RFU, UHRF1BP1L / Fold change vs veh, UHRF1BP1L / RFU, BET1 / Fold change vs veh, BET1 / RFU, CNOT2 / Fold change vs veh, CNOT2 / RFU, ZNF268 / Fold change vs veh, ZNF268 / Fold change vs veh, ZNF507 / RFU, DGCR2 / Fold change vs veh, DGCR2 / RFU, WDSUB1 / Fold change vs veh, WDSUB1 / Fold change vs veh, HSP90B1 /// MIR3652 / RFU, ADSS / Fold change vs veh, ADSS / RFU, GK / Fold change vs veh, GK / RFU, ZNF148 / Fold change vs veh, ZNF148 / RFU, TAF9 / Fold change vs veh, TAF9 / RFU, SLC1A5 / Fold change vs veh, SLC1A5 / RFU, SLMO2 / Fold change vs veh, SLMO2 / RFU, ABCC4 / Fold change vs veh, ABCC4 / RFU, LOC101060439 /// RAP1B / Fold change vs veh, LOC101060439 /// RAP1B / RFU, RFX7 / Fold change vs veh, RFX7 / RFU, GTPBP10 / Fold change vs veh, GTPBP10 / RFU, CNEP1R1 / Fold change vs veh, CNEP1R1 / RFU, BIVM-ERCC5 /// ERCC5 / Fold change vs veh, BIVM-ERCC5 /// ERCC5 / RFU, ILF3 / Fold change vs veh, ILF3 / RFU 11762660_at / Fold change /veh 11762660_at / RFU VCAN (11757783_s_at) / Fold change /veh VCAN (11757783_s_at) / RFU DDX43 (11728927_at) / Fold change /veh DDX43 (11728927_at) / RFU KRT8 (11758188_x_at) / Fold change /veh KRT8 (11758188_x_at) / RFU NKD1 (11759106_at) / Fold change /veh NKD1 (11759106_at) / RFU SRD5A1 (11742802_a_at) / Fold change /veh SRD5A1 (11742802_a_at) / RFU TPSAB1 /// TPSB2 (11721975_s_at) / Fold change /veh TPSAB1 /// TPSB2 (11721975_s_at) / RFU GSTM3 (11746129_a_at) / Fold change /veh GSTM3 (11746129_a_at) / RFU IL23R (11737362_x_at) / Fold change /veh IL23R (11737362_x_at) / RFU TMEM51 (11727254_a_at) / Fold change /veh TMEM51 (11727254_a_at) / RFU PIWIL2 (11732686_x_at) / Fold change /veh PIWIL2 (11732686_x_at) / RFU ORM1 (11744905_x_at) / Fold change /veh ORM1 (11744905_x_at) / RFU CCDC152 (11743942_at) / Fold change /veh CCDC152 (11743942_at) / RFU ECM1 (11717891_a_at) / Fold change /veh ECM1 (11717891_a_at) / RFU IL23R (11748794_a_at) / Fold change /veh IL23R (11748794_a_at) / RFU TNFAIP8L3 (11732012_x_at) / Fold change /veh TNFAIP8L3 (11732012_x_at) / RFU MBOAT4 (11741988_at) / Fold change /veh MBOAT4 (11741988_at) / RFU 11764193_at / Fold change /veh 11764193_at / RFU TMEM53 (11763286_at) / Fold change /veh TMEM53 (11763286_at) / RFU MAGEB2 (11727129_at) / Fold change /veh MAGEB2 (11727129_at) / RFU TMEM200A (11744735_a_at) / Fold change /veh TMEM200A (11744735_a_at) / RFU CCDC152 (11751479_a_at) / Fold change /veh CCDC152 (11751479_a_at) / RFU FAM211A (11726209_a_at) / Fold change /veh FAM211A (11726209_a_at) / RFU RGS16 (11746705_a_at) / Fold change /veh RGS16 (11746705_a_at) / RFU VCAN (11755009_s_at) / Fold change /veh VCAN (11755009_s_at) / RFU RHOB (11743442_s_at) / Fold change /veh RHOB (11743442_s_at) / RFU RGS16 (11720943_a_at) / Fold change /veh RGS16 (11720943_a_at) / RFU RGS16 (11720944_at) / Fold change /veh RGS16 (11720944_at) / RFU, VPS4B / Fold change vs veh, VPS4B / RFU, CREB1 / Fold change vs veh, CREB1 / RFU, DNAJC13 / Fold change vs veh, DNAJC13 / RFU, GNAQ / Fold change vs veh, GNAQ / RFU, CDK5R1 / Fold change vs veh, CDK5R1 / RFU, ZRANB3 / Fold change vs veh, ZRANB3 / RFU, CUL4A / Fold change vs veh, CUL4A / RFU, CCNY / Fold change vs veh, CCNY / RFU, UFL1 / Fold change vs veh, UFL1 / RFU, COG3 / Fold change vs veh, COG3 / RFU, DIAPH2 / Fold change vs veh, DIAPH2 / RFU, SKA2 / Fold change vs veh, SKA2 / RFU, AFF3 / Fold change vs veh, AFF3 / RFU, LMF1 / Fold change vs veh, LMF1 / RFU, IPO11 / Fold change vs veh, IPO11 / RFU, DFFB / Fold change vs veh, DFFB / RFU, FOXP1 / Fold change vs veh, FOXP1 / RFU, CARD8 / Fold change vs veh, CARD8 / RFU, STRN3 / Fold change vs veh, STRN3 / RFU, ADK / Fold change vs veh, ADK / RFU, RASSF2 / Fold change vs veh, RASSF2 / RFU, WIPF1 / Fold change vs veh, WIPF1 / RFU, LARP1B / Fold change vs veh, LARP1B / RFU, RASA1 / Fold change vs veh, RASA1 / RFU, RB1 / Fold change vs veh, RB1 / RFU, PPFIA1 / Fold change vs veh, PPFIA1 / RFU, MAT2A / Fold change vs veh, MAT2A / RFU, CCT5 / Fold change vs veh, CCT5 / RFU, WDR92 / Fold change vs veh, WDR92 / RFU, CUX1 / Fold change vs veh, CUX1 / RFU, TTC7A / Fold change vs veh, TTC7A / RFU, TMEM135 / Fold change vs veh, TMEM135 / RFU, DEPTOR / Fold change vs veh, DEPTOR / RFU, CPM / Fold change vs veh, CPM / RFU, DNAJB6 / Fold change vs veh, DNAJB6 / RFU, CACNA2D3 / Fold change vs veh, CACNA2D3 / RFU, DTX4 / Fold change vs veh, DTX4 / RFU, TFCP2 / Fold change vs veh, TFCP2 / RFU, GMCL1 /// GMCL1P1 / Fold change vs veh, GMCL1 /// GMCL1P1 / RFU, AEBP2 / Fold change vs veh, AEBP2 / RFU, SNHG1 /// SNORD22 /// SNORD25 /// SNORD26 /// SNORD27 /// SNORD28 /// SNORD29 /// SNORD31 / Fold change vs veh, SNHG1 /// SNORD22 /// SNORD25 /// SNORD26 /// SNORD27 /// SNORD28 /// SNORD29 /// SNORD31 / Fold change (Aza/veh), C12orf56 (ProbeSet 11735607_a_at) / Fold change (ACY-1035/veh), C12orf56 (ProbeSet 11735607_a_at) / Fold change (Aza/veh), FGFR1OP (ProbeSet 11751329_s_at) / Fold change (ACY-1035/veh), FGFR1OP (ProbeSet 11751329_s_at) / Fold change (Aza/veh), VPS36 (ProbeSet 11739960_a_at) / Fold change (ACY-1035/veh), VPS36 (ProbeSet 11739960_a_at) / RFU SYPL1 (11715823_x_at) / Fold change /veh SYPL1 (11715823_x_at) / RFU IGFBP7 (11715501_s_at) / Fold change /veh IGFBP7 (11715501_s_at) / RFU REEP3 (11722064_at) / Fold change /veh REEP3 (11722064_at) / RFU IGLL1 (11728026_x_at) / Fold change /veh IGLL1 (11728026_x_at): dose or concentration left out as unconfirmed. It is filed as cell-based, human.

As for `Nc1ccc(-c2cccs2)cc1NC(=O)c1ccc2c(c1)cc(C1CC1)n2CCN1CCOCC1` [ACY-1035], the “RFU RGS16 (11720944_at)” value is 40.38 RFU.
